# Tests used:
# [1] = system: C2C12 skeletal muscle cells; assay: Reactive species scavenging ability (DCFDA fluorescence); assay type: cell-based; conditions: 100 μM ester for 1 h after 5 days culture in GLT RPMI-1640 media
# Description: C2C12 muscle cell myotubes were cultured for 5 days in standard RPMI-1640 tissue culture media or GLT RPMI-1640 media. Corresponding media were then replaced and supplemented independently with 100 μM of a carnosine ester (L-carnosine methyl ester, L-carnosine ethyl ester, and L-carnosine iso-propyl ester investigated) for 1 h. Non-supplemented standard and GLT RPMI-1640 media were also retained as controls. Cells were thereafter washed 3 times in KRB and 20 μM 2′,7′-dichlorofluorescein diacetate (DCFDA), a cell permeant fluorogenic dye that measures hydroxyl, peroxyl and other ROS, was loaded for 1 h. Reactive species detection was measured via fluorescence, with excitation at 495 nm and emission at 530 nm.
# INS-1 pancreatic β-cells = assay: Insulin secretion from INS-1 pancreatic β-cells (ELISA, normalised to cellular protein); assay type: cell-based; conditions: 100 μM ester in GLT RPMI-1640 medium for 5 days; 2 h secretagogue cocktail stimulation
# Description: INS-1 pancreatic B-cells were cultured for 5 days in standard RPMI-1640 tissue culture media or GLT RPMI-1640 media. The media were either used without further supplementation (used as controls) or were independently supplemented with either 10 mM of L-carnosine or with 100 μM of a carnosine ester (L-carnosine methyl ester, L-carnosine ethyl ester, and L-carnosine iso-propyl ester investigated). INS-1 cells were then treated with KRB or KRB supplemented with secretagogue cocktail (13.5 mM glucose, 1 μM phorbol 12-myristate 13-acetate, 1 mM isobutyl-methylxanthine, 1 mM tolbutamide, 10 mM leucine, 10 mM glutamine) as a stimulant of insulin secretion for 2 h. Insulin secretion was determined by ELISA assay, with data normalised to cellular protein content.
# [2] = system: C2C12 skeletal muscle cells; assay: Toxicity testing of carnosine esters (Calcein AM cell viability); assay type: cell-based; conditions: 100 μM ester in GLT RPMI-1640 medium, 5 days culture, versus control medium
# Description: C2C12 muscle cell myotubes were cultured for 5 days in the following four culture media: a control RPMI-1640 medium; glucolipotoxic (GLT) RPMI-1640 medium (28 mM glucose, 200 μM palmitic acid and 200 μM oleic acid) supplemented with 100 μM of L-carnosine methyl ester; GLT RPMI-1640 medium supplemented with 100 μM of L-carnosine ethyl ester; and GLT RPMI-1640 medium supplemented with 100 μM of L-carnosine iso-propyl ester. Following culture, media were aspirated and cells washed 3 times in Krebs-Ringer buffer (KRB). A final concentration of 5 μM Calcein AM Cell Viability Dye (ThermoFischer) in KRB was loaded for 1 h before washing again with KRB. Cell viability was measured via fluorescence, with excitation and emission at 490 nm and 520 nm, respectively.
# [3] = system: High fat-fed spontaneously diabetic mice; assay: Glucose tolerance test in an in vivo model of type-2 diabetes; conditions: 45 mg/kg body weight/day in diet
# Description: High fat-fed spontaneously diabetic mice were used as an animal model of type-2 diabetes. A glucose tolerance test was performed on three sets of mice, wherein the mice were initially fasted for 6 h. A […] glucose solution was then administered to the three sets of mice in their drinking water and their blood glucose concentrations (mmol/L) monitored over a period of 2 h. The following three sets of mice were used in the study: • Non-diabetic, non-high fat-fed mice. • Spontaneously diabetic high fat-fed mice. • Spontaneously diabetic high fat-fed mice whose diet also included 45 mg/kg body weight/day of L-carnosine iso-propyl ester.
# Spontaneously diabetic high fat-fed mice were defined as mice which had been fed the following high fat diet from Research Diets: (60% fat; D12492). Non-diabetic, non-high fat-fed mice were used as a control and were fed the following low fat diet from Research Diets: (10% fat, D12450B). The body weights of the mice on the two different diets were measured throughout.
Structure (SMILES),intracellular reactive species (GLT-associated reactive species levels) [1],insulin secretion in cells exposed to glucolipotoxicity (GLT) (INS-1 pancreatic β-cells),cell viability [2],toxic effects on the animals ([3]; high fat-fed mice),"glucose tolerance ([3]; spontaneously diabetic high fat-fed mice, 6 h fast)",blood glucose concentrations at the end of the study (2 h) ([3]; versus high fat-fed mice only administered the high fat diet)
COC(=O)[C@H](Cc1cnc[nH]1)NC(=O)CCN [L-carnosine methyl ester],return to control values,reverse glucolipotoxic inhibition of insulin secretion,non-toxic,,,
CCOC(=O)[C@H](Cc1cnc[nH]1)NC(=O)CCN [L-carnosine ethyl ester],return to control values,reverse glucolipotoxic inhibition of insulin secretion,non-toxic,,,
CC(C)OC(=O)[C@H](Cc1cnc[nH]1)NC(=O)CCN [L-carnosine iso-propyl ester],return to control values,reverse glucolipotoxic inhibition of insulin secretion,non-toxic,no toxic effects,significantly improved glucose tolerance,significantly lower
